{"source": "ChEMBL document CHEMBL1156700", "about": "“Metabolic stereoselectivity of cytochrome P450 3A4 towards deoxypodophyllotoxin: In silico predictions and experimental validation” (Eur J Med Chem, 2008)", "format_in_all_cases": "ADME", "key": {"[1]": {"target": "T1, Cytochrome P450 3A4 (Homo sapiens, UniProt P08684)", "T1 sequence (P08684 whole entry)": "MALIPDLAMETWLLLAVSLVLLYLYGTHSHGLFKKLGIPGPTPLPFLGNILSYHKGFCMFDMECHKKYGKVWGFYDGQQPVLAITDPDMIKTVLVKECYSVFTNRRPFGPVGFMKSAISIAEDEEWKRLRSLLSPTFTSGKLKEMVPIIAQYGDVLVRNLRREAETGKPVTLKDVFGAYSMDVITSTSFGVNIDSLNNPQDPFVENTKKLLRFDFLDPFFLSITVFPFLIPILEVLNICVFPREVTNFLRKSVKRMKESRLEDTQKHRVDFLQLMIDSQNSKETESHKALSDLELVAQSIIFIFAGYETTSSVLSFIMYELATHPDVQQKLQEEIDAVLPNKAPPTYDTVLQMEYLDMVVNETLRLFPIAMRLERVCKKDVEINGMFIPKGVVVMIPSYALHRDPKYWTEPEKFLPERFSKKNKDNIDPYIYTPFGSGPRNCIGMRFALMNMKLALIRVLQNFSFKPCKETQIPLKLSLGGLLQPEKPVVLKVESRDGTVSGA", "test": "Activity of human recombinant CYP3A4 assessed as conversion of testosterone to 6-beta-hydroxytestesterone at 25 uM after 60 mins in presence of 25 uM Miconazole", "settings": "recombinant enzyme, 1 h"}, "[2]": {"target": "T1, Cytochrome P450 3A4", "test": "Activity of human recombinant CYP3A4 assessed as conversion of testosterone to 6-beta-hydroxytestesterone at 25 uM after 60 mins in presence of 25 uM epipodophyllotoxin", "settings": "recombinant enzyme, 1 h"}, "[3]": {"target": "T1, Cytochrome P450 3A4", "test": "Activity of human recombinant CYP3A4 co-expressed in Escherichia coli with human p450 NADPH reductase assessed as conversion of deoxypodophyllotoxin to epipodophyllotoxin", "settings": "recombinant enzyme"}, "[4]": {"target": "T1, Cytochrome P450 3A4", "test": "Ratio of Vmax to Km for human recombinant CYP3A4", "settings": "recombinant enzyme"}}}
{"smiles": "C[C@]12CC[C@H]3[C@@H](CCC4=CC(=O)CC[C@@]43C)[C@@H]1CC[C@@H]2O", "note": "[TESTOSTERONE]", "values": [{"measurement": "inhibition (INH)", "setting": "[1]", "result": 4.38, "unit": "%"}, {"measurement": "inhibition (INH)", "setting": "[2]", "result": 11.46, "unit": "%"}, {"measurement": "Km", "setting": "[3]", "result": 20.5, "unit": "µM"}, {"measurement": "Vmax", "setting": "[3]", "result": 30.3, "unit": "nmol/min"}, {"measurement": "Vmax/Km", "setting": "[4]", "result": "2.5e+06", "unit": "M⁻¹ s⁻¹"}]}
